This is an account of results in ChEMBL document CHEMBL5375986, “Discovery of Lead 2-Thiazolylhydrazones with Broad-Spectrum and Potent Antifungal Activity” (J Med Chem, 2023).

Structures are written as SMILES. Values after ≈ are worked out from the molar mass of the structure shown.

The MIC is the smallest concentration in the dilution series that meets the test's criterion for growth inhibition.

In one assay the test system is Cryptococcus neoformans. In words: Antifungal activity against Cryptococcus neoformans ATCC 24067 assessed as inhibition of fungal growth incubated for 24 to 48 hrs by CLSI based broth microdilution method. It counts as functional. As to conditions: time 24-48 hrs. For orientation: In broth dilution the organism is exposed to a series of concentrations in liquid medium.
For `CCOC(=O)C(C)=NNc1nc(-c2ccc(F)cc2)cs1`, the MIC is above 125 µM.

Regarding `C/C(CCC(=O)O)=N\Nc1nc(-c2ccc(C#N)cc2)cs1`, the MIC stood at 1.5 µM (≈ 0.472 µg/mL).

Regarding `CCOC(=O)c1sc(NN=C2CCOCC2)nc1C`, the minimal inhibitory concentration (MIC) is above 125 µM.

In the case of `CCOC(=O)/C(C)=N/Nc1nc(-c2ccccc2)cs1`, the MIC is above 125 µM.

With `CCOC(=O)/C(C)=N\Nc1nc(C)c(C(=O)OCC)s1`, the MIC was above 125 µM.

Regarding `C/C(CCC(=O)O)=N\Nc1nc(-c2ccc(F)cc2)cs1`, the MIC amounted to 3.2 µM (≈ 0.984 µg/mL).

Consider `CCOC(=O)Cc1csc(NN=C(C)C(=O)OCC)n1`, for which the MIC is above 125 µM.

On to `C/C(CCC(=O)O)=N\Nc1nc(-c2ccccc2)cs1`, for which the MIC amounted to 6.7 µM (≈ 1.94 µg/mL).

For the compound `CCOC(=O)/C(C)=N/Nc1nc(-c2ccc(Cl)cc2)cs1`, the MIC was above 125 µM.

For `CCOC(=O)Cc1csc(N/N=C\C2CCCCC2)n1`, the MIC turned out to be 106 µM (≈ 31.3 µg/mL).

`C/C(CCC(=O)O)=N\Nc1nc(-c2ccc(Br)cc2)cs1`: the MIC is 2.6 µM (≈ 0.957 µg/mL).

For a further assay, the system named is Candida parapsilosis. Briefly: Antifungal activity against Candida parapsilosis ATCC 22019 assessed as inhibition of fungal growth incubated for 24 to 48 hrs by CLSI protocol based broth microdilution method. It counts as functional. The conditions noted are these: Lodderomyces parapsilosis, time 24-48 hrs.
On to `CCOC(=O)C(C)=NNc1nc(-c2ccc(F)cc2)cs1`, for which the minimum inhibitory concentration (MIC) was above 125 µM.

`C/C(CCC(=O)O)=N\Nc1nc(-c2ccc(C#N)cc2)cs1`: the MIC is 6.2 µM (≈ 1.95 µg/mL).

As to `CCOC(=O)c1sc(NN=C2CCOCC2)nc1C`, the minimum inhibitory concentration (MIC) was above 125 µM.

As to `CCOC(=O)/C(C)=N/Nc1nc(-c2ccccc2)cs1`, the minimum inhibitory concentration (MIC) was above 125 µM.

For the compound `CCOC(=O)/C(C)=N\Nc1nc(C)c(C(=O)OCC)s1`, the MIC was above 125 µM.

Consider `C/C(CCC(=O)O)=N\Nc1nc(-c2ccc(F)cc2)cs1`, for which the MIC turned out to be 1.6 µM (≈ 0.492 µg/mL).

Regarding `CCOC(=O)Cc1csc(NN=C(C)C(=O)OCC)n1`, the MIC was 104 µM (≈ 31.3 µg/mL).

Turning to `C/C(CCC(=O)O)=N\Nc1nc(-c2ccccc2)cs1`, the MIC was found to be 13.5 µM (≈ 3.91 µg/mL).

For the compound `CCOC(=O)/C(C)=N/Nc1nc(-c2ccc(Cl)cc2)cs1`, the MIC is above 125 µM.

As to `CCOC(=O)Cc1csc(N/N=C\C2CCCCC2)n1`, the minimum inhibitory concentration (MIC) was determined as 52.9 µM (≈ 15.6 µg/mL).

As to `C/C(CCC(=O)O)=N\Nc1nc(-c2ccc(Br)cc2)cs1`, the MIC came out at 1.3 µM (≈ 0.479 µg/mL).

Tested on in the next assay: not listed separately
In words: Antifungal activity against Cryptococcus gattii ATCC 24065 assessed as inhibition of fungal growth incubated for 24 to 48 hrs by CLSI protocol based broth microdilution method. As to conditions: time 24-48 hrs. It counts as functional, Cryptococcus gattii VGI.
Turning to `CCOC(=O)C(C)=NNc1nc(-c2ccc(F)cc2)cs1`, the MIC was above 125 µM.

With `C/C(CCC(=O)O)=N\Nc1nc(-c2ccc(C#N)cc2)cs1`, the MIC was determined as 1.5 µM (≈ 0.472 µg/mL).

As for `CCOC(=O)c1sc(NN=C2CCOCC2)nc1C`, the MIC was above 125 µM.

For the compound `CCOC(=O)/C(C)=N/Nc1nc(-c2ccccc2)cs1`, the MIC is above 125 µM.

For `CCOC(=O)/C(C)=N\Nc1nc(C)c(C(=O)OCC)s1`, the MIC is above 125 µM.

Turning to `C/C(CCC(=O)O)=N\Nc1nc(-c2ccc(F)cc2)cs1`, the MIC amounted to 3.2 µM (≈ 0.984 µg/mL).

On to `CCOC(=O)Cc1csc(NN=C(C)C(=O)OCC)n1`, for which the MIC was above 125 µM.

With `C/C(CCC(=O)O)=N\Nc1nc(-c2ccccc2)cs1`, the MIC turned out to be 6.7 µM (≈ 1.94 µg/mL).

As to `CCOC(=O)/C(C)=N/Nc1nc(-c2ccc(Cl)cc2)cs1`, the MIC is above 125 µM.

As for `CCOC(=O)Cc1csc(N/N=C\C2CCCCC2)n1`, the MIC worked out at 106 µM (≈ 31.3 µg/mL).

With `C/C(CCC(=O)O)=N\Nc1nc(-c2ccc(Br)cc2)cs1`, the MIC is 1.3 µM (≈ 0.479 µg/mL).

The next assay concerns Candida albicans. Briefly: Antifungal activity against Candida albicans SC5314 assessed as inhibition of fungal growth incubated for 24 to 48 hrs by CLSI protocol based broth microdilution method. It counts as functional. As to conditions: time 24-48 hrs.
Take `CCOC(=O)C(C)=NNc1nc(-c2ccc(F)cc2)cs1`: the MIC was above 125 µM.

Turning to `C/C(CCC(=O)O)=N\Nc1nc(-c2ccc(C#N)cc2)cs1`, the MIC was found to be 3.1 µM (≈ 0.975 µg/mL).

As for `CCOC(=O)c1sc(NN=C2CCOCC2)nc1C`, the MIC is above 125 µM.

`CCOC(=O)/C(C)=N/Nc1nc(-c2ccccc2)cs1`: the MIC is above 125 µM.

As for `CCOC(=O)/C(C)=N\Nc1nc(C)c(C(=O)OCC)s1`, the MIC was above 125 µM.

`C/C(CCC(=O)O)=N\Nc1nc(-c2ccc(F)cc2)cs1`: the MIC was determined as 3.2 µM (≈ 0.984 µg/mL).

Take `CCOC(=O)Cc1csc(NN=C(C)C(=O)OCC)n1`: the MIC is 104 µM (≈ 31.3 µg/mL).

Take `C/C(CCC(=O)O)=N\Nc1nc(-c2ccccc2)cs1`: the MIC came to 3.4 µM (≈ 0.984 µg/mL).

Regarding `CCOC(=O)/C(C)=N/Nc1nc(-c2ccc(Cl)cc2)cs1`, the MIC is above 125 µM.

Consider `CCOC(=O)Cc1csc(N/N=C\C2CCCCC2)n1`, for which the MIC came to 52.9 µM (≈ 15.6 µg/mL).

In the case of `C/C(CCC(=O)O)=N\Nc1nc(-c2ccc(Br)cc2)cs1`, the MIC came to 0.3 µM (≈ 0.11 µg/mL).

The subject of the next assay is [Candida] auris. In words: Antifungal activity against Candida auris COLO 01 assessed as inhibition of fungal growth incubated for 24 to 48 hrs by CLSI protocol based broth microdilution method. The conditions noted are these: Candidozyma auris, time 24-48 hrs. It counts as functional.
Consider `CCOC(=O)C(C)=NNc1nc(-c2ccc(F)cc2)cs1`, for which the MIC came out at 50.8 µM (≈ 15.6 µg/mL).

Consider `C/C(CCC(=O)O)=N\Nc1nc(-c2ccc(C#N)cc2)cs1`, for which the MIC came to 0.8 µM (≈ 0.251 µg/mL).

For `CCOC(=O)c1sc(NN=C2CCOCC2)nc1C`, the MIC is above 125 µM.

As for `CCOC(=O)/C(C)=N/Nc1nc(-c2ccccc2)cs1`, the MIC was above 125 µM.

Turning to `CCOC(=O)/C(C)=N\Nc1nc(C)c(C(=O)OCC)s1`, the MIC is above 125 µM.

Consider `C/C(CCC(=O)O)=N\Nc1nc(-c2ccc(F)cc2)cs1`, for which the MIC came out at 0.8 µM (≈ 0.246 µg/mL).

With `CCOC(=O)Cc1csc(NN=C(C)C(=O)OCC)n1`, the MIC was 104 µM (≈ 31.3 µg/mL).

Turning to `C/C(CCC(=O)O)=N\Nc1nc(-c2ccccc2)cs1`, the MIC turned out to be 3.4 µM (≈ 0.984 µg/mL).

As for `CCOC(=O)/C(C)=N/Nc1nc(-c2ccc(Cl)cc2)cs1`, the MIC is above 125 µM.

In the case of `CCOC(=O)Cc1csc(N/N=C\C2CCCCC2)n1`, the MIC was found to be 52.9 µM (≈ 15.6 µg/mL).

Turning to `C/C(CCC(=O)O)=N\Nc1nc(-c2ccc(Br)cc2)cs1`, the MIC was determined as 0.3 µM (≈ 0.11 µg/mL).

A further assay relates to Pichia kudriavzevii. Briefly: Antifungal activity against Candida krusei ATCC 20298 assessed as inhibition of fungal growth incubated for 24 to 48 hrs by CLSI protocol based broth microdilution method. It counts as functional. The conditions noted are these: time 24-48 hrs.
For the compound `CCOC(=O)C(C)=NNc1nc(-c2ccc(F)cc2)cs1`, the minimal inhibitory concentration (MIC) came out at 102 µM (≈ 31.3 µg/mL).

For the compound `C/C(CCC(=O)O)=N\Nc1nc(-c2ccc(C#N)cc2)cs1`, the MIC was 1.5 µM (≈ 0.472 µg/mL).

`CCOC(=O)c1sc(NN=C2CCOCC2)nc1C`: the minimal inhibitory concentration (MIC) was above 125 µM.

On to `CCOC(=O)/C(C)=N/Nc1nc(-c2ccccc2)cs1`, for which the MIC was above 125 µM.

As for `CCOC(=O)/C(C)=N\Nc1nc(C)c(C(=O)OCC)s1`, the MIC is above 125 µM.

Regarding `C/C(CCC(=O)O)=N\Nc1nc(-c2ccc(F)cc2)cs1`, the MIC came to 1.6 µM (≈ 0.492 µg/mL).

Consider `CCOC(=O)Cc1csc(NN=C(C)C(=O)OCC)n1`, for which the MIC amounted to 13 µM (≈ 3.89 µg/mL).

For the compound `C/C(CCC(=O)O)=N\Nc1nc(-c2ccccc2)cs1`, the MIC was found to be 13.5 µM (≈ 3.91 µg/mL).

Turning to `CCOC(=O)/C(C)=N/Nc1nc(-c2ccc(Cl)cc2)cs1`, the MIC was above 125 µM.

As for `CCOC(=O)Cc1csc(N/N=C\C2CCCCC2)n1`, the MIC was determined as 0.8 µM (≈ 0.236 µg/mL).

For the compound `C/C(CCC(=O)O)=N\Nc1nc(-c2ccc(Br)cc2)cs1`, the MIC turned out to be 1.3 µM (≈ 0.479 µg/mL).

The next assay concerns Candida tropicalis. In words: Antifungal activity against Candida tropicalis ATCC 750 assessed as inhibition of fungal growth incubated for 24 to 48 hrs by CLSI protocol based broth microdilution method. It counts as functional. As to conditions: time 24-48 hrs.
For the compound `CCOC(=O)C(C)=NNc1nc(-c2ccc(F)cc2)cs1`, the MIC is above 125 µM.

`C/C(CCC(=O)O)=N\Nc1nc(-c2ccc(C#N)cc2)cs1`: the MIC is 24.8 µM (≈ 7.8 µg/mL).

As to `CCOC(=O)c1sc(NN=C2CCOCC2)nc1C`, the MIC is above 125 µM.

With `CCOC(=O)/C(C)=N/Nc1nc(-c2ccccc2)cs1`, the MIC is above 125 µM.

In the case of `CCOC(=O)/C(C)=N\Nc1nc(C)c(C(=O)OCC)s1`, the MIC was 104 µM (≈ 31.3 µg/mL).

For the compound `C/C(CCC(=O)O)=N\Nc1nc(-c2ccc(F)cc2)cs1`, the MIC is 6.3 µM (≈ 1.94 µg/mL).

For the compound `CCOC(=O)Cc1csc(NN=C(C)C(=O)OCC)n1`, the MIC came to 104 µM (≈ 31.3 µg/mL).

In the case of `C/C(CCC(=O)O)=N\Nc1nc(-c2ccccc2)cs1`, the MIC is 3.4 µM (≈ 0.984 µg/mL).

`CCOC(=O)/C(C)=N/Nc1nc(-c2ccc(Cl)cc2)cs1`: the MIC was above 125 µM.

Take `CCOC(=O)Cc1csc(N/N=C\C2CCCCC2)n1`: the MIC amounted to 6.6 µM (≈ 1.95 µg/mL).

Regarding `C/C(CCC(=O)O)=N\Nc1nc(-c2ccc(Br)cc2)cs1`, the MIC amounted to 2.6 µM (≈ 0.957 µg/mL).

The test system of a further assay is Nakaseomyces glabratus. Briefly: Antifungal activity against Candida glabrata ATCC 2001 assessed as inhibition of fungal growth incubated for 24 to 48 hrs by CLSI protocol based broth microdilution method. It counts as functional. The conditions noted are these: time 24-48 hrs.
On to `CCOC(=O)C(C)=NNc1nc(-c2ccc(F)cc2)cs1`, for which the MIC is above 125 µM.

Consider `C/C(CCC(=O)O)=N\Nc1nc(-c2ccc(C#N)cc2)cs1`, for which the minimum inhibitory concentration (MIC) amounted to 49.7 µM (≈ 15.6 µg/mL).

For the compound `CCOC(=O)c1sc(NN=C2CCOCC2)nc1C`, the MIC was above 125 µM.

Consider `CCOC(=O)/C(C)=N/Nc1nc(-c2ccccc2)cs1`, for which the MIC was above 125 µM.

`CCOC(=O)/C(C)=N\Nc1nc(C)c(C(=O)OCC)s1`: the MIC was above 125 µM.

For `C/C(CCC(=O)O)=N\Nc1nc(-c2ccc(F)cc2)cs1`, the MIC stood at 50.8 µM (≈ 15.6 µg/mL).

With `CCOC(=O)Cc1csc(NN=C(C)C(=O)OCC)n1`, the MIC stood at 52.2 µM (≈ 15.6 µg/mL).

`C/C(CCC(=O)O)=N\Nc1nc(-c2ccccc2)cs1`: the MIC was determined as 1.7 µM (≈ 0.492 µg/mL).

Take `CCOC(=O)/C(C)=N/Nc1nc(-c2ccc(Cl)cc2)cs1`: the MIC is above 125 µM.

On to `CCOC(=O)Cc1csc(N/N=C\C2CCCCC2)n1`, for which the MIC is above 125 µM.

Regarding `C/C(CCC(=O)O)=N\Nc1nc(-c2ccc(Br)cc2)cs1`, the MIC came out at 42.4 µM (≈ 15.6 µg/mL).
